Here are results for 31 molecules from PubChem BioAssay (NCI).

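A five-concentration, 48-hour dose response in 96-well plates underlies each endpoint, interpolated linearly between surrounding concentrations. The concentration for full growth arrest is given as TGI.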

Holding throughout (assay): NCI-60 cell line screen, 48 h
Assay [1] relates to OVCAR-3 ovarian.
Assay [2] has as its system OVCAR-5 ovarian.
Assay [3] deals with SK-MEL-28 melanoma.
Assay [4] relates to MOLT-4 leukemia.
Assay [5] relates to NCI-H522 lung.
Assay [6] has as its system ACHN renal.
Assay [7] concerns HOP-92 NSCLC.
Assay [8] concerns IGROV1 ovarian.
The subject of assay [9] is A498 renal.

For `Cc1[nH]c(=O)nc2[nH][nH]c(=O)c12`, the TGI in assay [1], in assay [2], in [3], in assay [4], in assay [5] and in assay [6] was greater than 100 µM each time. The TGI in assay [7] and in assay [8] was greater than 100 µM each time.

For `O=C1C2C3C=C4c5ccccc5N(c5ccccc5)C4(C2C(=O)N1c1ccc([N+](=O)[O-])cc1)[C@H]1C(=O)N(c2ccc([N+](=O)[O-])cc2)C(=O)[C@@H]31` (some centres undefined), the TGI in assay [1], in [2], in [3], in assay [4], in assay [5] and in assay [9] was greater than 100 µM in each case. The TGI in assay [6], in assay [7] and in assay [8] was greater than 100 µM in each case.

As to `Clc1cc(Cl)c2ns[s+]c2c1Cl`, the TGI in [1], in assay [2], in assay [3], in assay [4], in assay [5] and in assay [9] was greater than 100 µM each time. The TGI in [6] and in assay [8] was greater than 100 µM in each case.

`CCOC(=O)C1SC(=Nc2ccc(C)c(C)c2)N=C1C` (centres undefined): the TGI in [1], in [2], in assay [3], in assay [4], in assay [5] and in assay [9] was greater than 100 µM each time. The TGI in assay [6], in [7] and in assay [8] was greater than 100 µM in each case.

Regarding `O=C(/C=C/c1ccc(Cl)c(Cl)c1)c1ccc2ccccc2c1`, the TGI in [1], in assay [2], in assay [3], in assay [4], in assay [5] and in assay [9] was greater than 100 µM in each case. Moreover, the TGI in assay [6], in [7] and in assay [8] was greater than 100 µM each time.

`COc1ccc2c3c([nH]c2c1[N+](=O)[O-])C(C)N(C)CC3` (centres undefined): the TGI in assay [1], in assay [2], in [3], in [4], in [5] and in [9] was greater than 100 µM each time. Also, the TGI in [6], in [7] and in assay [8] was greater than 100 µM throughout.

Regarding `O=C(N/N=C/c1cc(Br)ccc1O)N/N=C/c1cc(Br)ccc1O`, the TGI in assay [2], in [3], in assay [4], in [5], in [9] and in assay [6] was greater than 100 µM each time. In assay [7], the TGI turned out to be 6.05 µM.

As for `Cn1c(O)c(C(=O)NC2CCCCC2)c(=O)n(C)c1=S`, the TGI was found to be 26.6 µM in assay [1]; 38.9 µM in assay [2]; 16.8 µM in assay [3]; 12.6 µM in assay [4]; 16.9 µM in [5]; 13 µM in assay [9]. In addition, the TGI came out at 13.7 µM in [6], 8.48 µM in assay [7] and 27.8 µM in assay [8].

As to `COC(=O)C(CC(=O)Nc1ccc(C)cc1)C(=O)C(=O)Nc1c(C(C)C)cccc1C(C)C` (centres undefined), the TGI in [2], in assay [3], in assay [4], in assay [5], in assay [9] and in [6] was greater than 100 µM in each case. Also, the TGI in assay [7] and in assay [8] was greater than 100 µM throughout.

Turning to `Cc1cc(NS(=O)(=O)c2ccc(Nc3c4ccccc4nc4c(C(=O)N5CCN(CCO)CC5)cccc34)cc2)no1`, the TGI in assay [1], in assay [2], in assay [3], in [4], in [5] and in assay [9] was greater than 100 µM throughout. For the same molecule, the TGI in assay [6], in [7] and in assay [8] was greater than 100 µM throughout.

`CCCC1=C(CC)C(C(=O)Nc2c(C)cccc2C)=NC(S)N1` (centres undefined): the TGI in assay [1], in assay [2], in assay [3], in assay [4], in [5] and in [9] was greater than 100 µM in each case. The TGI in assay [6], in assay [7] and in assay [8] was greater than 100 µM each time.

In the case of `O=C(Nc1ccccc1-c1nc2ccccc2[nH]c1=O)c1ccccc1`, the TGI was 44 µM in [1]; greater than 100 µM in [2]; greater than 100 µM in [3]; greater than 100 µM in assay [4]; 46.1 µM in assay [5]; 51.3 µM in assay [9]. Further, the TGI in [6] is 45 µM; in assay [7] it was 51.4 µM; in [8], 70.6 µM.

For `CCCN(CCC)C(=O)c1c([N+](=O)[O-])cc(C(F)(F)F)cc1[N+](=O)[O-]`, the TGI in assay [1] was 34.8 µM; in assay [2], greater than 100 µM; in [3] it was greater than 100 µM; in assay [4] it was greater than 100 µM; in assay [5], 60.5 µM; in [9], greater than 100 µM. Besides, the TGI in assay [6] is greater than 100 µM; in [7], 93.3 µM; in assay [8] it was greater than 100 µM.

In the case of `CC1=CC(C)(C)N=C2SC(c3ccc(N)cc3)=NN12`, the TGI in assay [1], in assay [2], in assay [3], in assay [4], in assay [5] and in assay [9] was greater than 100 µM in each case. Moreover, the TGI in [6], in [7] and in assay [8] was greater than 100 µM each time.

In the case of `c1ccc(C2N3CCCCC3[C@@H]3c4[nH]c5ccccc5c4CCN23)nc1` (some centres undefined), the TGI in [1], in assay [2], in [3], in assay [4], in assay [9] and in [6] was greater than 100 µM in each case. Besides, the TGI in assay [7] and in assay [8] was greater than 100 µM each time.

Take `COC(=O)C12CC3CC(CC(C(=O)O)(C3)C1)C2`: the TGI in [1], in assay [2], in [3], in [4], in [5] and in assay [9] was greater than 100 µM each time. Moreover, the TGI in assay [6], in assay [7] and in assay [8] was greater than 100 µM each time.

`O=C1c2ccccc2C(=O)C1(O)c1c[nH]c2ccccc12`: the TGI in [1], in assay [2], in [3], in assay [4], in [5] and in assay [7] was greater than 100 µM in each case. The molecule further displayed a TGI in assay [8] greater than 100 µM.

For the molecule `[N-]=[N+]=C1C(=O)NN=C1c1ccccc1`, the TGI in assay [1], in assay [2], in assay [3], in assay [4], in assay [5] and in [6] was greater than 100 µM in each case. Further, the TGI in [7] and in [8] was greater than 100 µM throughout.

For `COC(=O)[C@@]12C(=O)C=CC(=O)C1C1C(=CC2C)OC2OC3(CCCCC3)OC21` (some centres undefined), the TGI in assay [1] came to 33.8 µM; in assay [2] it was 27.8 µM; in [3] it was 33.6 µM; in assay [4] it was 37.5 µM; in [9], 32.2 µM; in assay [6] it was 30.6 µM. This molecule also had a TGI in [8] of 35.1 µM.

On to `CNC(=S)/N=C(\N)N(C)C`, for which the TGI in assay [1], in assay [3], in assay [4], in [5], in assay [9] and in [6] was greater than 100 µM each time. For the same molecule, the TGI in assay [7] and in assay [8] was greater than 100 µM throughout.

On to `Nc1ccccc1/C(O)=C1/CCOC1=O`, for which the TGI in [1], in [2], in [3], in assay [4], in [5] and in [9] was greater than 100 µM each time. Besides, the TGI in [6], in assay [7] and in assay [8] was greater than 100 µM in each case.

For the molecule `CN(C)CCC1(C2=CCCC2)CC/C(=C\c2ccc(Cl)cc2)C1=O` (centres undefined), the TGI in assay [1] was 26.8 µM; in [2], 25.7 µM; in [3] it was 7.4 µM; in [4], 6.02 µM; in [5] it was 18.8 µM; in [9], 19.1 µM. Also, the TGI in assay [6] is 23.8 µM; in assay [7], 15.4 µM; in assay [8], 21 µM.

For the molecule `CCOC(=O)/C(C)=C(/O)C(=O)OCC`, the TGI in assay [1], in assay [2], in [3], in assay [4], in assay [5] and in assay [9] was greater than 100 µM each time. The TGI in assay [6], in [7] and in [8] was greater than 100 µM in each case.

On to `CCOC(=O)CC(C)C1(C(=O)OCC)CCCCC1=O` (centres undefined), for which the TGI in assay [1], in assay [2], in assay [3], in [4], in assay [5] and in assay [9] was greater than 100 µM each time. In addition, the TGI in assay [6] and in assay [8] was greater than 100 µM each time.

With `CCCCNC1CCCCC[C@H]1O` (some centres undefined), the TGI in assay [1], in assay [2], in [3], in [4], in assay [5] and in assay [6] was greater than 100 µM in each case. The TGI in [7] and in assay [8] was greater than 100 µM each time.

Regarding `COC(=O)C(Cc1nc2ccccc2[nH]c1=O)C(NO)C(=O)Nc1c(Cl)cc([N+](=O)[O-])cc1Cl` (centres undefined), the TGI is greater than 100 µM in [1]; greater than 100 µM in assay [3]; 67 µM in assay [4]; 31.3 µM in [5]; 46.5 µM in [9]; greater than 100 µM in [6]. Also, the TGI was 25.7 µM in assay [7] and greater than 100 µM in [8].

Consider `Cc1nnc(NS(=O)(=O)c2ccc(N=Nc3cc(N=Nc4ccc(S(=O)(=O)Nc5nnc(C)s5)cc4)c4c(NC(=O)C(Cl)Cl)cccc4c3OC(=O)C(Cl)Cl)cc2)s1` (tested in a mixture with another compound), for which the TGI in assay [1] was 55.2 µM; in assay [2], 55.5 µM; in assay [3] it was 48.5 µM; in assay [4] it was 33 µM; in assay [5] it was 64.7 µM; in assay [9], greater than 100 µM. The TGI in assay [7] was greater than 100 µM; in assay [8], 97.5 µM.

For `COc1ccc(CN2CC(C)(C)C2=O)c(OC)c1`, the TGI in assay [1], in assay [3], in [4], in [5], in assay [9] and in [6] was greater than 100 µM each time. In addition, the TGI in assay [7] and in assay [8] was greater than 100 µM throughout.

As to `Cc1cc(N(CCC#N)CCC#N)ccc1/C=C(\NC(=O)/C=C/c1ccccc1)C(N)=O`, the TGI in assay [1], in [2], in assay [3], in assay [4], in [5] and in [9] was greater than 100 µM in each case. Further, the TGI in [6] and in [8] was greater than 100 µM each time.

Consider `O=C(Nc1cc(Cl)c(Cl)cc1Cl)C(=O)C1C(=O)NC(=S)NC1=O`, for which the TGI in assay [2], in assay [3], in assay [4], in [5], in [9] and in [6] was greater than 100 µM each time. Moreover, the TGI in [7] and in assay [8] was greater than 100 µM each time.

With `CCOC(=O)N[C@@H]1C(CC(=O)OC)O[C@H]2OC(C)(C)O[C@H]21` (some centres undefined), the TGI in assay [1], in [2], in assay [3], in assay [4], in assay [9] and in [6] was greater than 100 µM throughout. The TGI in assay [7] and in assay [8] was greater than 100 µM each time.
